Reference: patent publication US20120021967A1, “SYNTHETIC ANTIBODIES” (Arizona Board of Regents, A Body Corporate of the State Of …, priority 2008, published 2012)
Bridges are numbered along the chain shown (N, C = ends). Roman numbers before positions name the chains, in order. Where no end group is shown, it is not given here.

What was measured:
transferrin [1] = target: T1, transferrin (Homo sapiens, UniProt P02787); test: SPR of SYN23-26 binding to transferrin; details: read-out: estimated Kd with respect to transferrin
T1 sequence (P02787 20-698): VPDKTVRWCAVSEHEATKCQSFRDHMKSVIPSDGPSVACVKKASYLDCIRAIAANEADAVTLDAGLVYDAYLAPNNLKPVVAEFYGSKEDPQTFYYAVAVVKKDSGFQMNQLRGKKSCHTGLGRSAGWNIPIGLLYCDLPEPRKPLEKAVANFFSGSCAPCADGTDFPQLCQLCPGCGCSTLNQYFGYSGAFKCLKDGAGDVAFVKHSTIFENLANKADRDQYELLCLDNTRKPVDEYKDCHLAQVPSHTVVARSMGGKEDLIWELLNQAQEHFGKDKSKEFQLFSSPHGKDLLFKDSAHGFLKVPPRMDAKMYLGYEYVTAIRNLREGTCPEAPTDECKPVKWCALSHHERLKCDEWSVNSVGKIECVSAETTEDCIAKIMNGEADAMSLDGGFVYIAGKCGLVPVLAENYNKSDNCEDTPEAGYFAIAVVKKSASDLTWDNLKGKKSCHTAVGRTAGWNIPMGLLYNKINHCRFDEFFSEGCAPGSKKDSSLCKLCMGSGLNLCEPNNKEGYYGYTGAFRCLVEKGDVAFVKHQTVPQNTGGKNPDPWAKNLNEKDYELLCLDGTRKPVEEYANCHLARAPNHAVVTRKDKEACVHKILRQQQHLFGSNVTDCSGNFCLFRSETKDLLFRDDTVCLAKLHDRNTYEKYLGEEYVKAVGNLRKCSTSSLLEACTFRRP

AKT1 = AKT1 (Homo sapiens, UniProt P31749); test: SPR of SYN23-26 binding to AKT1; details: read-out: estimated Kd with respect to AKT1
Sequence of AKT1 (P31749 whole entry): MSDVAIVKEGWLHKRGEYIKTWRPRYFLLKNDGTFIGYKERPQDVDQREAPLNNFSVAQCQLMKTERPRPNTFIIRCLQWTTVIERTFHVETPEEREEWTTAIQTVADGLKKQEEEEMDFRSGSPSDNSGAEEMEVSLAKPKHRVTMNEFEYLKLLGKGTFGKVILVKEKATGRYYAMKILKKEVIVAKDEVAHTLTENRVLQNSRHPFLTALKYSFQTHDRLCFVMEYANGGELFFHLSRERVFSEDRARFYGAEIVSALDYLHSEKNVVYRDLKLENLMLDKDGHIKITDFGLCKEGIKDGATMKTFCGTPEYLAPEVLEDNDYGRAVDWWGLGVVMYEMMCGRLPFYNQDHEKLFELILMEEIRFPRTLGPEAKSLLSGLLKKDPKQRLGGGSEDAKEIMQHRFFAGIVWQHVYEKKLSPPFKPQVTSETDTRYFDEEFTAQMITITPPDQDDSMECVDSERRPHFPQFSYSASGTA

transferrin [2] = target: T1, transferrin; test: SPR of lysine-linked synbodies on immobilized transferrin, Kd from kinetics; assay type: binding; details: Kd determined from kinetics; read-out: Kd with respect to transferrin
Description: Transferrin 25 μg/ml in immobilization buffer selected for correct pH was then applied 302 at a flow rate of 5 to 10 μl/min for a contact time of about 5 to 10 minutes, allowing the amine functionality on the transferrin 308 to displace the activated NHS ester and bond to the surface via an amide bond. Finally, ethylene diamine (1-Methylene diamine-HCl at pH 8.5) was applied 304 at a flow rate of 5 to 10 μl/min for a contact time of about 6 to 7 minutes to deactivate any remaining reactive groups on the dextran chip surface. Flow rates and contact times are adjusted as necessary to provide the surface concentration of target desired for the intended application, and may vary by target. In general, for evaluating whether binding occurs, it is preferable to immobilize a relatively large quantity of target, and higher flow rates and/or longer contact times may be used. For determining kinetics, it is preferable to limit the amount of target immobilized so as to minimize rebinding and avidity effects, and lower flow rates and/or contact times may be used.
Candidate affinity elements for the transferrin synbody TRF19, TRF21, TRF23, TRF24, TRF25, and TRF26 were individually evaluated for solution phase KD with respect to transferrin by SPR analysis. […]

[3] = tested on: 8,000 human proteins (GST fusion); test: Invitrogen Protoarray Human Protein Microarray binding pattern (8,000 features); details: fluorescence intensity on human protein microarray
Description: Two biotinylated anti-TRF synbodies (SYN23-26 and SYN 21-22) were applied to a protein microarray having 8,000 features (Invitrogen Protoarray Human Protein Microarray v. 4.0 for immune response biomarker profiling), each feature comprising a distinct human protein (GST fusion) adsorbed to a nitrocellulose coated slide. Application of the synbodies to the microarray was performed in accordance with manufacturer instructions: (see ProtoArray Human Protein Microarray, Invitrogen, Catalog no. PAH052401, Version B, 15 Dec. 2006, 25-0970, Users Manual.) After blocking the array with 1% BSA/PBS/0.1% Tween for 1 hour at 4C with gentle shaking, 120 μl of probing buffer (1×PBS, 5 mM mgC12, 0.5 mM DTT, 0.05% Triton X-100, 5% glycerol, 1% BSA) with synbody was applied to the array. The prescribed cover slip was placed over the array and adjusted to remove air bubbles. The array was incubated in a 50 ml conical tube, printed side up, for 1.5 hours at 4C without shaking. The array was then removed from the conical tube inserted diagonally into the array chamber, kept on ice. 8 ml probing buffer was added to the chamber wall. The cover slip was removed and the array was incubated in probing buffer for 1 minute on ice. […] The array was dried in the dark for 60 minutes at room temperature, after which it was scanned using a fluorescent microarray scanner and data was taken and analyzed.

I: AHKVVPQRQIRHAYNRYGSGKC / II: FRGWAHIFFGPHVIYRGGSG (amide I:21-II:C) [SYN23-26]
Kd (transferrin [1]): ~141 nM
Kd (AKT1): ~1 nM
Kd (transferrin [2]): 150 ± 50 nM
highest affinity target from a library of 8,000 [3]: PCCA
